The source of these data is patent US9573954B2, “Pyrazolopyrimidine compounds” (University Health Network, priority 2012, dated 2017).

Assay [1] concerns ovarian cancer cells (OVCAR-3). Description: Cancer cell line growth inhibition, Sulforhodamine B assay, OVCAR-3. The assay is classed as cell-based. Conditions: Homo sapiens, OVCAR-3, OVCAR-3 ovarian cancer cell line; read-out: Cancer Cell Line GI50 Range OVCAR-3. A digest of the protocol:
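OVCAR-3 cells were seeded 24 h before compound addition, then exposed for 5 days to final concentrations of 10 nM to 50 μM in DMEM with 10% FBS. Growth was measured by TCA fixation and sulforhodamine B staining with absorbance at 570 nm. Inhibition was relative to DMSO-only cells, and GI50 came from curve fitting.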
On the technique in general: Sulforhodamine B stains cellular protein and so reports cell mass.

For assay [2], the system named is breast cancer cells (MDA-MB-468). Description: Cancer cell line growth inhibition, Sulforhodamine B assay, MDA-MB-468. The assay is classed as cell-based. The following applies: Homo sapiens, MDA-MB-468, MDA-MB-468 breast cancer cell line; read-out: Cancer Cell Line GI50 Range MDA-MB-468. A digest of the protocol: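 Sulforhodamine B staining (TCA-fixed, read at 570 nm) estimates cell mass after 5-day compound treatment of MDA-MB-468 cells, final concentrations 10 nM to 50 μM in 10% FBS DMEM. GI50 derived from growth inhibition versus DMSO controls.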

The subject of assay [3] is colon cancer cells (HCT116). The experiment in a line: Cancer cell line growth inhibition, Sulforhodamine B assay, HCT116. The assay is classed as cell-based. Conditions: Homo sapiens, HCT-116, HCT116 colon cancer cell line; read-out: Cancer Cell Line GI50 Range HCT116. The procedure, abridged: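 GI50 is calculated from growth inhibition relative to DMSO controls, using TCA-fixed, SRB-stained protein mass read at 570 nm. Compound, 10 nM–50 μM final in 10% FBS DMEM, was applied for 5 days to HCT116 cells that had been plated 24 h before at 1000–4000/well.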

The target in another assay is T1, human TTK (Homo sapiens, UniProt P33981).
T1 construct: Active TTK was purchased from Invitrogen as an amino terminal GST fusion of full length human TTK; purchased Invitrogen
T1 sequence (P33981 1-857): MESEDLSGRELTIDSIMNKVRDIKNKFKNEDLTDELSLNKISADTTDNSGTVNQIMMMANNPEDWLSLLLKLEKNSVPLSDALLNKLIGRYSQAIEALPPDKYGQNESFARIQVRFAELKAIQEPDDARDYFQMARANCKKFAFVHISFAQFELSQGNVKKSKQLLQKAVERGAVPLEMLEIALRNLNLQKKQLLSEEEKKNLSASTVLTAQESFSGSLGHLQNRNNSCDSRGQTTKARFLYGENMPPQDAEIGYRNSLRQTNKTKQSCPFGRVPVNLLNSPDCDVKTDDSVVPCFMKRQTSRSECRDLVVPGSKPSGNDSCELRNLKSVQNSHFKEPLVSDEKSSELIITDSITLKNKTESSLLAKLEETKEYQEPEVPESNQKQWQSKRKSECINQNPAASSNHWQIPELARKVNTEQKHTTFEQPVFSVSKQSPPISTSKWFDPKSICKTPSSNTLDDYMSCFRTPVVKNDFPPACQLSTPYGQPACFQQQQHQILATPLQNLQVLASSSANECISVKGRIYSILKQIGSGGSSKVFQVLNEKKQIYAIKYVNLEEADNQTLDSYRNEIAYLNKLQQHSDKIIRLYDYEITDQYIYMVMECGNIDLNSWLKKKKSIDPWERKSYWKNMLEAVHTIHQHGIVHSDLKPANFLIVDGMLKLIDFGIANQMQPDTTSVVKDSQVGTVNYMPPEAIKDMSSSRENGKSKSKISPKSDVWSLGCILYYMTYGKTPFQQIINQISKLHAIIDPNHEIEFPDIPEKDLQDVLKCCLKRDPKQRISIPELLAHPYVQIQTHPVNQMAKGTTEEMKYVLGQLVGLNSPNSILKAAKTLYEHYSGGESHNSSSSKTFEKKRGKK
The experiment in a line: TTK inhibition assay (indirect ELISA). The assay is classed as biochemical. The procedure, abridged:
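Activity detected by indirect ELISA after compounds sat with full-length GST-TTK for 5 min prior to starting the reaction with ATP. IC50 came from a four-parameter logistic curve of % inhibition, calculated against background and uninhibited control wells.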
On the technique in general: ELISA stands for enzyme-linked immunosorbent assay.

Where [4] appears, read: 100 μM ATP, read-out: TTK IC50 Range.
Setting [5] is: 16 μM ATP (Sigma cat# A7699), read-out: TTK IC50 Range (denoted with an asterisk).

The term GI50 denotes the concentration giving 50% growth inhibition. One may read the IC50 as the concentration that gives 50% inhibition.

Like-named read-outs stand apart in the source and are kept apart here. Where only a bound is given, the exact number is not on record here.

`Cc1cc(-c2cnn3c(NCCN4CCOCC4)cc(Oc4cccnc4)nc23)ccc1C(=O)NC1CC1` [Example C51]: the GI50 in assay [1], in assay [2] and in assay [3] was 0.1 to 0.5 µM each time. The IC50 on human TTK (setting [4]) is under 0.1 µM.
As to `O=C(NC1CC1)c1ccc(-c2cnn3c(NCC4CCOCC4)nc(Nc4ccccc4)nc23)cc1Cl` [Example C9], the values for the GI50 in assay [1], in assay [2] and in assay [3] were 0.1 to 0.5 µM, over 0.5 µM and over 0.5 µM, respectively. Moreover, at human TTK (setting [5]), the 50% inhibitory concentration (IC50) was under 0.1 µM.
In the case of `Cc1cc(-c2cnn3c(NCC4CCOCC4)cc(Oc4ccc[n+]([O-])c4)nc23)ccc1C(=O)NC1CC1` [Example C30, 3-((3-(4-(cyclopropylcarbamoyl)-3-methylphenyl)-7-(((tetrahydro-2H-pyran-4-yl)methyl)amino)pyrazolo[1,5-a]pyrimidin-5-yl)oxy)pyridine-1-oxide], the GI50 in assay [1], in assay [2] and in assay [3] was over 0.5 µM throughout. Moreover, the IC50 on human TTK (setting [4]) is under 0.1 µM.
With `Cc1cc(-c2cnn3c(NCC(C)C)cc(N[C@H](CO)C(C)C)nc23)ccc1C(=O)NC1CC1` [Example C158], the 50% growth inhibitory concentration (GI50) in assay [1] is 0.1 to 0.5 µM; in assay [2] it was 0.1 to 0.5 µM; in assay [3], at most 0.1 µM. In addition, the IC50 on human TTK (setting [4]) is under 0.1 µM.
For the compound `Cc1cc(-c2cnn3c(NC[C@H]4C[C@@](C)(O)C4)cc(NC4CCCC4)nc23)ccc1C(=O)NC1CC1` [Example C44, 4-(5-(cyclopentylamino)-7-((((1s,3s)-3-hydroxy-3-methylcyclobutyl)methyl)amino)pyr-azolo[1,5-a]pyrimidin-3-yl)-N-cyclopropyl-2-methylbenzamide], the GI50 in assay [1], in assay [2] and in assay [3] was at most 0.1 µM throughout. Further, the IC50 on human TTK (setting [4]) is under 0.1 µM.
As to `Cc1cc(-c2cnn3c(NCC4CCOCC4)cc(N4CCC[C@@H]4CO)nc23)ccc1C(=O)NC1CC1` [Example C164], the figures for the 50% growth inhibitory concentration (GI50) in assay [1], in assay [2] and in assay [3] were over 0.5 µM, 0.1 to 0.5 µM and 0.1 to 0.5 µM, respectively. The IC50 on human TTK (setting [4]) is under 0.1 µM.
Take `Cc1cc(-c2cnn3c(NCC4CC4)cc(NC4CCOCC4)nc23)ccc1C(=O)NC1CC1` [Example C153]: the concentration for 50% growth inhibition (GI50) in assay [1] was 0.1 to 0.5 µM; in assay [2] it was 0.1 to 0.5 µM; in assay [3], at most 0.1 µM. Further, on human TTK (setting [4]), the IC50 was under 0.1 µM.
Consider `Cc1cc(-c2cnn3c(NCC4CCOCC4)cc(NC4CCC4)nc23)ccc1C(=O)NC1CC1` [Example C109], for which the GI50 in assay [1] is 0.1 to 0.5 µM; in assay [2] it was 0.1 to 0.5 µM; in assay [3], at most 0.1 µM. Moreover, the IC50 on human TTK (setting [4]) was under 0.1 µM.
Turning to `Cc1cc(-c2cnn3c(NCCCn4ccnc4)cc(Oc4ccccc4)nc23)ccc1C(=O)NC1CC1` [Example C61], the 50% growth inhibitory concentration (GI50) in assay [1], in assay [2] and in assay [3] was at most 0.1 µM each time. In addition, the 50% inhibitory concentration (IC50) on human TTK (setting [4]) was under 0.1 µM.
On to `Cc1cc(-c2cnn3c(NCCN4CCOCC4)cc(Oc4cccc(N(C)C)c4)nc23)ccc1C(=O)NC1CC1` [Example C96], for which the GI50 in assay [1], in assay [2] and in assay [3] was over 0.5 µM each time. The IC50 at human TTK (setting [4]) is under 0.1 µM.
With `Cc1cc(-c2cnn3c(NCC4CCOCC4)cc(NC4(CO)CCOCC4)nc23)ccc1C(=O)NC1CC1` [Example C88], the GI50 was over 0.5 µM in assay [1], 0.1 to 0.5 µM in assay [2] and over 0.5 µM in assay [3]. For the same compound, the IC50 on human TTK (setting [4]) was under 0.1 µM.
Take `Cc1cc(-c2cnn3c(NCC4CCOCC4)cc(N[C@H](CO)C4CCCCC4)nc23)ccc1C(=O)NC1CC1` [Example C163]: the concentration for 50% growth inhibition (GI50) in assay [1] is 0.1 to 0.5 µM; in assay [2], 0.1 to 0.5 µM; in assay [3], at most 0.1 µM. The half-inhibitory concentration (IC50) at human TTK (setting [4]) was under 0.1 µM.
`Cc1cc(-c2cnn3c(NCC4CCOCC4)cc(N[C@H]4CCCC[C@H]4CO)nc23)ccc1C(=O)NC1CC1` [Example C131]: the GI50 in assay [1] is over 0.5 µM; in assay [2], 0.1 to 0.5 µM; in assay [3], 0.1 to 0.5 µM. Besides, the IC50 at human TTK (setting [4]) was under 0.1 µM.
Turning to `Cc1cc(-c2cnn3c(NCCN4CCN(C)CC4)cc(Oc4cccc(F)c4)nc23)ccc1C(=O)NC1CC1` [Example C178], the 50% growth inhibitory concentration (GI50) in assay [1] is 0.1 to 0.5 µM; in assay [2], at most 0.1 µM; in assay [3] it was at most 0.1 µM. Moreover, the IC50 at human TTK (setting [4]) was under 0.1 µM.
On to `Cc1cc(-c2cnn3c(NCC4CCOCC4)cc(NCc4cccnc4)nc23)ccc1C(=O)NC1CC1` [Example C74], for which the GI50 in assay [1] is over 0.5 µM; in assay [2], 0.1 to 0.5 µM; in assay [3] it was 0.1 to 0.5 µM. Besides, the IC50 on human TTK (setting [4]) is under 0.1 µM.
Take `Cc1cc(-c2cnn3c(NCC4CCOCC4)cc(N[C@@H]4CCCOC4)nc23)ccc1C(=O)NC1CC1` [Example C82]: the GI50 in assay [1], in assay [2] and in assay [3] was 0.1 to 0.5 µM each time. Also, the half-inhibitory concentration (IC50) on human TTK (setting [4]) was under 0.1 µM.
As for `Cc1cc(-c2cnn3c(NCC4CCOCC4)cc(N[C@H]4CCOC4)nc23)ccc1C(=O)NC1CC1` [Example C138], the GI50 in assay [1] was 0.1 to 0.5 µM; in assay [2] it was 0.1 to 0.5 µM; in assay [3], at most 0.1 µM. Moreover, the IC50 on human TTK (setting [4]) is under 0.1 µM.
Regarding `Cc1cc(-c2cnn3c(NCC4CCOCC4)cc(Oc4cncc(F)c4)nc23)ccc1C(=O)NC1CC1` [Example C56], the GI50 in assay [1], in assay [2] and in assay [3] was at most 0.1 µM each time. In addition, the IC50 on human TTK (setting [4]) is under 0.1 µM.
Regarding `Cc1cc(-c2cnn3c(NCCN4CCOCC4)nc(Oc4cccc(F)c4)nc23)ccc1C(=O)NC1CC1` [Example C27], the results for the concentration for 50% growth inhibition (GI50) in assay [1], in assay [2] and in assay [3] were 0.1 to 0.5 µM, 0.1 to 0.5 µM and at most 0.1 µM, respectively. On human TTK (setting [5]), the IC50 is under 0.1 µM.
For `Cc1cc(-c2cnn3c(NC[C@H]4CCOC4)cc(N[C@H]4CCCC[C@H]4O)nc23)ccc1C(=O)NC1CC1` [Example C35, N-cyclopropyl-4-(5-(((1S,2R)-2-hydroxycyclohexyl)amino)-7-((((R)-tetrahydrofuran-3-yl)methyl)amino)pyrazolo[1,5-a]pyrimidin-3-yl)-2-methylbenzamide], the GI50 in assay [1], in assay [2] and in assay [3] was at most 0.1 µM each time. Further, the half-inhibitory concentration (IC50) on human TTK (setting [4]) is under 0.1 µM.
With `CC[C@H](Nc1cc(NC[C@H]2CCOC2)n2ncc(-c3ccc(C(=O)NC4CC4)c(C)c3)c2n1)[C@H](C)O` [Example C133], the concentration for 50% growth inhibition (GI50) in assay [1], in assay [2] and in assay [3] was 0.1 to 0.5 µM each time. On human TTK (setting [4]), the IC50 was under 0.1 µM.
In the case of `Cc1cc(-c2cnn3c(NC[C@H]4CC[C@@H](O)CC4)cc(NC4CCOCC4)nc23)ccc1C(=O)NC1CC1` [Example C179], the GI50 in assay [1], in assay [2] and in assay [3] was at most 0.1 µM throughout. Also, on human TTK (setting [4]), the 50% inhibitory concentration (IC50) was under 0.1 µM.
